Target: T1, human fibroblast collagenase (Homo sapiens, UniProt P03956)
T1 sequence (P03956 100-469): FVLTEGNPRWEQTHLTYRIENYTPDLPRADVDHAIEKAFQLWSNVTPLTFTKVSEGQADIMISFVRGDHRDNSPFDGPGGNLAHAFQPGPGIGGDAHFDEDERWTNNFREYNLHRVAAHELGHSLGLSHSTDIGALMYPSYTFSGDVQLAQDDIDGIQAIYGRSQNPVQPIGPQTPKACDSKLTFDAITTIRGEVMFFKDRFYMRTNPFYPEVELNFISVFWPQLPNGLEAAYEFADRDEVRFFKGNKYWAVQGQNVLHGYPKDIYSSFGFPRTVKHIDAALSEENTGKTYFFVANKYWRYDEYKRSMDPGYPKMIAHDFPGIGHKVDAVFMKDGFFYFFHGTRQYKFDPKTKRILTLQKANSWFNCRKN
Test: Human fibroblast collagenase inhibition assay (14C-acetylated collagen hydrolysis, Cawston and Barrett)
Format: biochemical
Settings: 37° C., 16 hours, acetylated 14C collagen, 25 mM Hepes pH 7.5; read-out: inhibitor concentration effecting 50% inhibition of the collagenase activity (IC50)
Protocol: The potency of compounds of the present invention as inhibitors of human fibroblast collagenase may be determined by the procedure of Cawston and Barrett, (Anal. Biochem., 99, 340-345, 1979), hereby incorporated by reference, whereby a 1 mM solution of the compound being tested, or a dilution thereof, was incubated at 37° C. for 16 hours with collagen and human fibroblast collagenase (buffered with 25 mM Hepes, pH 7.5 containing 5 mM CaCl2, 0.05% Brij 35 and 0.02% NaN3). The collagen was acetylated ^14 C collagen prepared by the method of Cawston and Murphy, (Methods in Enzymology, 80, 711, 1981), hereby incorporated by reference. The samples were centrifuged to sediment undigested collagen, and an aliquot of the radioactive supernatant removed for assay on a scintillation counter as a measure of hydrolysis.

IC50: ~50 nM
Structure (SMILES): COc1ccc(S(=O)(=O)NCC[C@H](C(=O)NO)[C@@H](CC(C)C)C(=O)N2CCCCC2)cc1 [Example 2, 2S-[(4-Methoxybenzenesulfonyl-amino)-ethyl]-5-methyl-3R-(piperidine-1-carbonyl)-hexanoic acid hydroxyamide]
